Experimental findings from patent US4374249A, “[4R]-3-(ω-Aroylpropionyl)-4-thiazolidinecarboxylic acids and esters” (American Cyanamid Company, priority 1980, dated 1983) are described below.

By pIC50 is commonly meant the IC50 on a negative log10 scale, so that one unit is a factor of ten. A higher pIC50 goes with a small IC50.

Structures are written as SMILES. pIC50: −log10 of the molar value.

This test addresses T1, angiotensin converting enzyme (ACE) (Oryctolagus cuniculus, UniProt P12822).
T1 construct: The ACE was extracted from rabbit lung acetane powder; tissue Pel-Freez, Biol. Inc; host or cells: rabbit lung acetone powder, 40,000 g supernatant used as crude extract
T1 sequence (P12822 34-1310): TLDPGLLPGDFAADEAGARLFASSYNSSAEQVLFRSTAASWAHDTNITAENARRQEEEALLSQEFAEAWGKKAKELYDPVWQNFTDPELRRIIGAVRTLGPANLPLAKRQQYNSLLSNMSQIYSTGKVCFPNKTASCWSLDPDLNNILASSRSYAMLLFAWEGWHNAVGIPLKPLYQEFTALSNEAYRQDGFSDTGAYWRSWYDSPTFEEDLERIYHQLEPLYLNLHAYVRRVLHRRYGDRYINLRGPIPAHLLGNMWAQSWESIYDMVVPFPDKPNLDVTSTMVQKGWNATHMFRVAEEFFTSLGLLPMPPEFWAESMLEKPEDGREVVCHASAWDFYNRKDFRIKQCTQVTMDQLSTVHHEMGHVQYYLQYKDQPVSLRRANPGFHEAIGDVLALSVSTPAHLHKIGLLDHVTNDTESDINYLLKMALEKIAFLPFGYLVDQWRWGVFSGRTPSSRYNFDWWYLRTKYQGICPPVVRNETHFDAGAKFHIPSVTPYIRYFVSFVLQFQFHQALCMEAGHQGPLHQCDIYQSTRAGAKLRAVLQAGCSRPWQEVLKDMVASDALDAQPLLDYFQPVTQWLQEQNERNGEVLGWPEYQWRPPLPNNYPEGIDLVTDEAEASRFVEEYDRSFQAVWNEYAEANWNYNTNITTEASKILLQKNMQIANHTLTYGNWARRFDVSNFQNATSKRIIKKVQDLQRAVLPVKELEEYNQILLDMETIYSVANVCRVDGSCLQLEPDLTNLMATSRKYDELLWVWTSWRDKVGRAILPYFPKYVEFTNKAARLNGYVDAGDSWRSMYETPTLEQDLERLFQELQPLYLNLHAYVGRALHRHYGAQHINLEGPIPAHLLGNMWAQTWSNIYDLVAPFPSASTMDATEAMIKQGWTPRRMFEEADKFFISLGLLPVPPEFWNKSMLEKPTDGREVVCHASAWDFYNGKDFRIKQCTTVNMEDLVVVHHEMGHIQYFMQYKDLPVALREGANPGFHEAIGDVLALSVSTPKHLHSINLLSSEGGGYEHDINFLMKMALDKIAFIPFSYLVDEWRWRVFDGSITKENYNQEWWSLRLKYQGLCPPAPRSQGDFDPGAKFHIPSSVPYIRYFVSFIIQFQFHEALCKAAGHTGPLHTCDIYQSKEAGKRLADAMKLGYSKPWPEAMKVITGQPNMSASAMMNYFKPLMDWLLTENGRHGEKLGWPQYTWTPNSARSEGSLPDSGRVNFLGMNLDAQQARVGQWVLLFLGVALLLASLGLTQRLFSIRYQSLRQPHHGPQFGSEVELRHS
The test can be described thus: Spectrophotometric Assay for Angiotensin Converting Enzyme Inhibitors (in vitro inhibition of ACE, benzoyl-glycyl-histidyl-leucine substrate). Type of test: biochemical. The conditions noted are these: crude ACE extract from rabbit lung; 30 minutes at 37° C.; hippuric acid absorbance at 228 nm. The method, then: Spectrophotometric Assay for Angiotensin Converting Enzyme Inhibitors
The in vitro activity for inhibition of the angiotensin converting enzyme (ACE) was measured by the method of Cushman, D. W. and Cheung, H. S., Biochem. Pharmacol., 20, 1637-1648 (1971), using benzoyl-glycyl-histidyl-leucine as the substrate. The reaction mixture consisted of 50 μl. of potassium phosphate (500 mM., […]), 30 μl. of sodium chloride (2500 mM.), 25 μl. of substrate (50 mM.), 30 to 50 μl. of the crude extract of ACE, 10 μl. of test compound (2.5 mM.) or vehicle and a suitable amount of distilled water to give a total volume of 250 μl. This reaction mixture was incubated for 30 minutes at 37° C. and the reaction was then terminated by the addition of 250 μl. of 1 N hydrochloric acid. The hippuric acid was then extracted with 1.5 ml. of ethyl acetate by vortex mixing for 15 seconds. After centrifugation, one ml. of the ethyl acetate layer was pipetted into a new tube and evaporated to dryness. The extracted hippuric acid was then dissolved in one ml. of water and the amount of this acid was then measured by its absorbance at 228 nm. The ACE was extracted from rabbit lung acetane powder (Pel-Freez, Biol. Inc.) by blending 5 g. of the powder in 50 ml. of phosphate buffer (50 mM., pH 8.3) and then centrifuging at 40,000 g for 40 minutes. The supernatant was then kept at 5° C. and used as the enzyme source. The activity of the ACE inhibitor was calculated as the percent inhibition of ACE activity compared to the control value of that particular assay. A full dose-response inhibitory curve is then performed to determine the IC50 value which may be defined as the molar concentration of a compound that will inhibit ACE activity by 50%.
`CC(=O)SC(C(=O)c1ccccc1)[C@@H](C)C(=O)N1CSC[C@H]1C(=O)O` (stereo partly drawn) [[4R-(4R*,2'S*)]-3-(3-Acetylthio-3-benzoyl-2-methylpropionyl)-4-thiazolidinecarboxylic acid] showed a negative-log IC50 (pIC50) of 7.17. In the case of `CC(=O)SC(CC(=O)c1ccccc1)C(=O)N1CSC[C@H]1C(=O)O` (stereo partly drawn) [[4R]-3-(2-Acetylthio-3-benzoylpropionyl)-4-thiazolidinecarboxylic acid], the pIC50 is 5.08. Against the preceding compound, the pIC50 is 2.09 log units lower.

As to `CC(=O)SC(CC(=O)N1CSC[C@H]1C(=O)OCc1c(C)cc(C)cc1C)C(=O)c1ccc(F)cc1` (stereo partly drawn) [[4R]-3-[3-Acetylthio-3-(4-fluorobenzoyl)propionyl]-4-thiazolidinecarboxylicacid, 2,4,6-trimethylbenzyl ester], the pIC50 is 4.77.
